Source: US6288077A, “2,3-methano-amino acid compounds” (Adir et Compagnie, priority 1999, dated 2001)
Counter-ions that a name gives are not always drawn.

Columns and labels:
dog plasma [1] = assay: Anti-coagulant activity after administration per os to the dog, activated cephalin time (ACT); format: in vivo; conditions: oral
Procedure: (§1) Anti-coagulant Activity After Administration Per os to the Dog
(§2) Male or female dogs weighing 11-28 kg are treated by the oral route with the products of the invention (5 or 10 mg/kg). The coagulation times (TT, ACT) are determined in dog plasma samples 10 min. before and 30 min., 1 hour, 2 hours, 4 hours and 6 hours after administration of the products. The measurements of the coagulation times are carried out as described in Example 81.
(§3) Under the conditions of our experiments, the TT is of the order of 19 seconds and the ACT of the order of 18 seconds.
(§4) The Table 4 summarizes the results obtained.

human plasma [2] = assay: Activated cephalin time (ACT) in human plasma, anti-coagulant activity; format: biochemical; conditions: human plasma deficient in platelets, 2 min incubation at 37° C., PTT Automate Cephalin
Procedure: (§5) Anti-coagulant Activity, Measurement of Thrombin Time and Activated […] Man In order to evaluate the anti-coagulant activity of the compounds of the invention, the thrombin time (TT) and the activated cephalin time (ACT) were determined in human plasma samples. An ST4 coagulometer (Diagnostica Stago, France) was used. A lyophilised plasma, deficient in platelets (Stago), is taken up in distilled water. The TT is obtained using the reagent Prest Thrombin and the ACT using the reagent PTT Automate […]. […] The activity of an antagonist is evaluated by its capacity to prolong the TT and the ACT relative to the control. The effect of the inhibitors is expressed by the concentration in μM that doubles the coagulation time (Ctt2).

dog plasma [3] = assay: Anti-coagulant activity after administration per os to the dog, thrombin time (TT); format: in vivo; conditions: oral
Procedure: as §1, §2, §3, §4

human plasma [4] = assay: Thrombin time (TT) in human plasma, anti-coagulant activity; format: biochemical; conditions: human plasma deficient in platelets, 2 min incubation at 37° C., Prest Thrombin
Procedure: as §5

human thrombin = molecular target: T1, human thrombin (Homo sapiens, UniProt P00734); assay: Inhibition of human thrombin (fibrin formation from purified human fibrinogen); format: biochemical; conditions: human thrombin 0.7 nM, human fibrinogen 4 mM, pH 7.4, 20° C., 10 min preincubation
T1 construct: purchased Sigma
Procedure: Inhibition of Thrombin and of Fibrinolysis Serine Proteases […] The fibrin formed by the thrombin or by the paranitroanilide released by the action of the serine protease is measured spectrophotometrically at 405 nm after from 15 to 30 minutes' reaction at 20° C.

Which “ACT increase (maximal; number of times by which the initial time is increased)” value (from here on “ACT increase”) (dog plasma [1]; 5 mg/kg) does the source give for Cl.Cl.N=C(N)c1ccc(CNC(=O)[C@]23C[C@H]2CCN3C(=O)[C@H](N)C(c2ccccc2)c2ccccc2)cc1 [Example 11, 1-[(2R)-3,3-Diphenylalanyl]-N-(4-amidinobenzyl)-(2S,3R)-2,3-methano-prolinamide dihydrochloride] here?
Its value is 2.3 times.

And the “ACT Ctt2 (concentration that doubles the coagulation time)” value (“ACT Ctt2” for short) (human plasma [2])?
The value was 0.59 µM.

What about the “TT increase (maximal; number of times by which the initial time is increased)” value (shortened to “TT increase”) (dog plasma [3]; 5 mg/kg) of the same compound?
The value was 5.6 times.

What about the “TT Ctt2 (concentration that doubles the coagulation time)” value (“TT Ctt2” for short) (human plasma [4]) of the same compound?
Its value is 0.06 µM.

What about the IC50 (human thrombin) of the same compound?
Its IC50 is 4 nM.

Which “ACT Ctt2” value (human plasma [2]) does the source give for Cl.N=C(N)c1ccc(CNC(=O)[C@]23C[C@H]2CCN3C(=O)[C@H](NCC(=O)O)C(C2CCCCC2)C2CCCCC2)cc1 [Example 14, 1-[N-Carboxymethyl-(2R)-3,3-dicyclohexylalanyl]-N-(4-amidinobenzyl)-(2S,3R)-2,3-methano-prolinamide hydrochloride] here?
The value was 2.20 µM.

What about the “TT Ctt2” value (human plasma [4]) of the same compound?
Its value is 0.19 µM.

And the IC50 (human thrombin)?
The IC50 was 1 nM.

What does the source list for Cc1nc(N)ccc1CNC(=O)[C@]12C[C@H]1CCCN2C(=O)[C@H](N)CC1CCCCC1.Cl.Cl [Example 28, 1-[(2R)-3-Cyclohexylalanyl]-N-[(6-amino-2-methyl-3-pyridyl)methyl]-(2S,3R)-2,3-methano-homoprolinamide dihydrochloride]?
ACT increase (maximal; number of times by which the initial time is increased) (dog plasma [1]; 10 mg/kg): 1.8 times; ACT Ctt2 (concentration that doubles the coagulation time) (human plasma [2]): 2.30 µM; TT increase (maximal; number of times by which the initial time is increased) (dog plasma [3]; 10 mg/kg): 6.2 times; TT Ctt2 (concentration that doubles the coagulation time) (human plasma [4]): 0.31 µM; IC50 (human thrombin): 26 nM

With Cl.N=C(N)c1ccc(CNC(=O)[C@]23C[C@H]2CCCN3C(=O)[C@@H](CC2CCCCC2)NCC(=O)O)cc1 [Example 24, 1-[N-Carboxymethyl-(2R)-3-cyclohexylalanyl]-N-(4-amidinobenzyl)-(2S,3R)-2,3-methano-homoprolinamide hydrochloride] as the compound, how does the “ACT increase” value (dog plasma [1]; 5 mg/kg) read?
The value was 1.2 times.

And the “ACT Ctt2” value (human plasma [2])?
The value was 0.58 µM.

What about the “TT increase” value (dog plasma [3]; 5 mg/kg) of the same compound?
The value was 6.7 times.

What about the “TT Ctt2” value (human plasma [4]) of the same compound?
Its value is 0.03 µM.

What about the IC50 (human thrombin) of the same compound?
Its IC50 is 2.3 nM.

Which “ACT increase” value (dog plasma [1]; 5 mg/kg) does the source give for Cl.Cl.N=C(N)c1ccc(CNC(=O)[C@]23C[C@H]2CCN3C(=O)[C@H](N)CC2CCCCC2)cc1 [Example 2, 1-[(2R)-3-Cyclohexylalanyl]-N-(4-amidinobenzyl)-(2S,3R)-2,3-methano-prolinamide dihydrochloride] here?
The value was 1.4 times.

What about the “ACT Ctt2” value (human plasma [2]) of the same compound?
The value was 0.52 µM.

And the “TT increase” value (dog plasma [3]; 5 mg/kg)?
The value was 3.8 times.

What about the “TT Ctt2” value (human plasma [4]) of the same compound?
The value was 0.07 µM.

What about the IC50 (human thrombin) of the same compound?
Its IC50 is 7.9 nM.

CCOC(=O)CN[C@H](CC1CCCCC1)C(=O)N1CCC[C@@H]2C[C@@]21C(=O)NCc1ccc(C(=N)N)cc1.Cl.Cl [Example 25, 1-[N-Ethoxycarbonylmethyl-(2R)-3-cyclohexylalanyl]-N-(4-amidinobenzyl)-(2S,3R)-2,3-methano-homoprolinamide dihydrochloride] was tested. Which “ACT Ctt2” value (human plasma [2]) did it give?
The value was 0.45 µM.

What about the “TT Ctt2” value (human plasma [4]) of the same compound?
The value was 0.08 µM.

What about the IC50 (human thrombin) of the same compound?
The IC50 was 2 nM.

How did the “ACT Ctt2” value (human plasma [2]) turn out when Cl.N=C(N)c1ccc(CNC(=O)[C@]23C[C@H]2CCN3C(=O)[C@@H](Cc2ccccc2)NS(=O)(=O)Cc2ccccc2)cc1 [Example 9, 1-[N-Benzylsulphonyl-(2R)-3-phenylalanyl]-N-(4-amidinobenzyl)-(2S,3R)-2,3-methano-prolinamide hydrochloride] was run?
Its value is 0.86 µM.

What about the “TT Ctt2” value (human plasma [4]) of the same compound?
Its value is 0.20 µM.

And the IC50 (human thrombin)?
The IC50 was 6 nM.

Which “ACT increase” value (dog plasma [1]; 5 mg/kg) does the source give for Cl.Cl.N=C(N)c1ccc(CNC(=O)[C@]23C[C@H]2CCCN3C(=O)[C@H](N)C(c2ccccc2)c2ccccc2)cc1 [Example 61, 1-[(2R)-3,3-Diphenylalanyl]-N-(4-amidinobenzyl)-(2S,3R)-2,3-methano-homoprolinamide dihydrochloride] here?
The value was 2.0 times.

And the “ACT Ctt2” value (human plasma [2])?
Its value is 0.47 µM.

What about the “TT increase” value (dog plasma [3]; 5 mg/kg) of the same compound?
Its value is 14.2 times.

What about the “TT Ctt2” value (human plasma [4]) of the same compound?
The value was 0.05 µM.

What about the IC50 (human thrombin) of the same compound?
Its IC50 is 1 nM.

With Cc1nc(N)ccc1CNC(=O)[C@]12C[C@H]1CCCN2C(=O)[C@H](N)C(C1CCCCC1)C1CCCCC1 [Example 63, 1-[(2R)-3,3-Dicyclohexylalanyl]-N-[(6-amino-2-methyl-3-pyridyl)methyl]-(2S,3R)-2,3-methano-homoprolinamide dihydrochloride] as the compound, how does the IC50 (human thrombin) read?
Its IC50 is 8.8 nM.

N=C(N)c1ccc(CNC(=O)[C@]23C[C@H]2CCN3C(=O)[C@H](NS(=O)(=O)Cc2ccccc2)C2CCCCC2)cc1 [Example 16, 1-[N-Benzylsulphonyl-(2R)-cyclohexylglycyl]-N-(4-amidinobenzyl)-(2S,3R)-2,3-methano-prolinamide hydrochloride] was tested. Which “ACT Ctt2” value (human plasma [2]) did it give?
The value was 0.42 µM.

What about the “TT Ctt2” value (human plasma [4]) of the same compound?
The value was 0.09 µM.

And the IC50 (human thrombin)?
The IC50 was 1 nM.

How did the “ACT Ctt2” value (human plasma [2]) turn out when Cc1nc(N)ccc1CNC(=O)[C@]12C[C@H]1CCCN2C(=O)[C@@H](CC1CCCCC1)NCC(=O)O.Cl.Cl [Example 32, 1-[N-Carboxymethyl-(2R)-3-cyclohexylalanyl]-N-[(6-amino-2-methyl-3-pyridyl)methyl]-(2S,3R)-2,3-methano-homoprolinamide dihydrochloride] was run?
The value was 1.09 µM.

What about the “TT Ctt2” value (human plasma [4]) of the same compound?
Its value is 0.12 µM.

What about the IC50 (human thrombin) of the same compound?
The IC50 was 7.1 nM.

How did the “ACT increase” value (dog plasma [1]; 5 mg/kg) turn out when CCOC(=O)CN[C@H](CC1CCCCC1)C(=O)N1CCC[C@@H]2C[C@@]21C(=O)NCc1ccc(N)nc1C.Cl.Cl [Example 33, 1-[N-Ethoxycarbonylmethyl-(2R)-3-cyclohexylalanyl]-N-[(6-amino-2-methyl-3-pyridyl)methyl]-(2S,3R)-2,3-methano-homoprolinamide dihydrochloride] was run?
The value was 1.5 times.

What about the “ACT Ctt2” value (human plasma [2]) of the same compound?
Its value is 1.10 µM.

What about the “TT increase” value (dog plasma [3]; 5 mg/kg) of the same compound?
Its value is 7.1 times.

What about the “TT Ctt2” value (human plasma [4]) of the same compound?
The value was 0.11 µM.

What about the IC50 (human thrombin) of the same compound?
Its IC50 is 5.1 nM.

With Cl.N=C(N)c1ccc(CNC(=O)[C@]23C[C@H]2CCN3C(=O)[C@@H](CC2CCCCC2)NCC(=O)O)cc1 [Example 3, 1-[N-Carboxymethyl-(2R)-3-cyclohexylalanyl]-N-(4-amidinobenzyl)-(2S,3R)-2,3-methano-prolinamide hydrochloride] as the compound, how does the “ACT increase” value (dog plasma [1]; 5 mg/kg) read?
The value was 2.1 times.

And the “ACT Ctt2” value (human plasma [2])?
Its value is 0.56 µM.

What about the “TT increase” value (dog plasma [3]; 5 mg/kg) of the same compound?
The value was 8.4 times.

And the “TT Ctt2” value (human plasma [4])?
Its value is 0.06 µM.

And the IC50 (human thrombin)?
The IC50 was 5.3 nM.

For CN[C@H](CC1CCCCC1)C(=O)N1CCC[C@@H]2C[C@@]21C(=O)NCc1ccc(N)nc1C.Cl.Cl [Example 29, 1-[N-Methyl-(2R)-3-cyclohexylalanyl]-N-[(6-amino-2-methyl-3-pyridyl)methyl]-(2S,3R)-2,3-methano-homoprolinamide dihydrochloride], which “ACT increase” value (dog plasma [1]; 10 mg/kg) is on record?
The value was 1.7 times.

And the “ACT Ctt2” value (human plasma [2])?
Its value is 2.80 µM.

What about the “TT increase” value (dog plasma [3]; 10 mg/kg) of the same compound?
Its value is 6.2 times.

What about the “TT Ctt2” value (human plasma [4]) of the same compound?
Its value is 0.46 µM.

What about the IC50 (human thrombin) of the same compound?
The IC50 was 44 nM.

Which results are given for CCCCN[C@H](CC1CCCCC1)C(=O)N1CCC[C@@H]2C[C@@]21C(=O)NCc1ccc(N)nc1C.Cl.Cl [Example 31, 1-[N-Butyl-(2R)-3-cyclohexylalanyl]-N-[(6-amino-2-methyl-3-pyridyl)methyl]-(2S,3R)-2,3-methano-homoprolinamide dihydrochloride]?
ACT Ctt2 (concentration that doubles the coagulation time) (human plasma [2]): 1.30 µM; TT Ctt2 (concentration that doubles the coagulation time) (human plasma [4]): 0.17 µM; IC50 (human thrombin): 5.1 nM

Which results are given for N=C(N)c1ccc(CNC(=O)[C@]23C[C@H]2CCN3C(=O)[C@H](NCC(=O)O)C2CCCCC2)cc1 [Example 17, 1-[N-Carboxymethyl-(2R)-cyclohexylglycyl]-N-(4-amidinobenzyl)-(2S,3R)-2,3-methano-prolinamide hydrochloride]?
ACT increase (maximal; number of times by which the initial time is increased) (dog plasma [1]; 5 mg/kg): 3.7 times; ACT Ctt2 (concentration that doubles the coagulation time) (human plasma [2]): 0.86 µM; TT increase (maximal; number of times by which the initial time is increased) (dog plasma [3]; 5 mg/kg): 16.0 times; TT Ctt2 (concentration that doubles the coagulation time) (human plasma [4]): 0.11 µM; IC50 (human thrombin): 28 nM

How did the “ACT Ctt2” value (human plasma [2]) turn out when Cl.Cl.N=C(N)c1ccc(CNC(=O)[C@]23C[C@H]2CCN3C(=O)[C@H](N)C(C2CCCCC2)C2CCCCC2)cc1 [Example 13, 1-[(2R)-3,3-Dicyclohexylalanyl]-N-(4-amidinobenzyl)-(2S,3R)-2,3-methano-prolinamide dihydrochloride] was run?
The value was 2.30 µM.

What about the “TT Ctt2” value (human plasma [4]) of the same compound?
The value was 0.18 µM.

And the IC50 (human thrombin)?
Its IC50 is 1.2 nM.
